Laboratory results taken from patent publication US11478457B2, “Castration-resistant prostate cancer” (priority 2015, dated 2022).

Biological target: T1, UDP-glucose dehydrogenase (Homo sapiens, UniProt O60701)
T1 sequence (O60701 1-494): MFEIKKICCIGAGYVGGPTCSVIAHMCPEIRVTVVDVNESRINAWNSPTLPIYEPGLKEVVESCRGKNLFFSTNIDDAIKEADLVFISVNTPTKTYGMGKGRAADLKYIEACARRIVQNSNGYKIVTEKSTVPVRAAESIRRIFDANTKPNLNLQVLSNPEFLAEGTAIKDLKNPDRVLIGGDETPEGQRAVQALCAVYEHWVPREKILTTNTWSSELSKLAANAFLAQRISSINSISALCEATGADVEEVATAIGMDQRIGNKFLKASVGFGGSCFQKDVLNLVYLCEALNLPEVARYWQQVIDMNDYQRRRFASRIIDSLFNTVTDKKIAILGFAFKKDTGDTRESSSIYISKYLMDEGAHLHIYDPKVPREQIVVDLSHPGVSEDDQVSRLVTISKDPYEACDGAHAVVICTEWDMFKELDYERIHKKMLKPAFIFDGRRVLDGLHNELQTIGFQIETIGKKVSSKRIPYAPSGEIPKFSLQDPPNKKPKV
Assay: High throughput screening for inhibitors of UDP-glucose dehydrogenase (NADH fluorescence)
Format: biochemical
Settings: for inhibition at 25 µg/mL (stock): compound plates 20 μL/well of 25 μg/mL compound in 2.5% DMSO, relative to DMSO negative and UDP-xylose positive controls, higher POC = more inhibitory, read-out: POC (Percent of Controls)

`CCN(CC)c1ccc(N)c(C)c1` showed an inhibition at 25 µg/mL (stock) of 46%.
`CCSc1sc(SC#N)cc1SC#N` showed an inhibition at 25 µg/mL (stock) of 83%.
`CC(C)N(CCC#N)S(=O)(=O)c1ccccc1[N+](=O)[O-]` gave an inhibition at 25 µg/mL (stock) of 81%.
`c1ccc(CNc2nc(-c3ccccc3)[n+](-c3ccccc3)s2)cc1` was tested, and the inhibition at 25 µg/mL (stock) was 106%.
`N#CSC(C#N)Cc1ccccc1` (centres unmarked) gave an inhibition at 25 µg/mL (stock) of 59%.
Compound `N#CSC(C#N)Cc1cccc(Cl)c1` (centres unmarked) has an inhibition at 25 µg/mL (stock) of 74%.
`CCc1ccc(NC(Nc2ccc(CC)cc2)=C(S(=O)(=O)CC)S(=O)(=O)CC)cc1` was tested, and the inhibition at 25 µg/mL (stock) was 47%.
Compound `N#CSC(C#N)Cc1ccc([N+](=O)[O-])cc1` (centres unmarked) has an inhibition at 25 µg/mL (stock) of 80%.
For `N#CSC(C#N)Cc1cccc([N+](=O)[O-])c1` (centres unmarked), the inhibition at 25 µg/mL (stock) was 88%.
Compound `Cc1ccc(S(=O)(=O)Nc2cccc3ccc(-n4nc(C)cc4C)nc23)cc1` has an inhibition at 25 µg/mL (stock) of 148%.
With `N#Cc1ccc(Oc2ccc(C(=O)Nc3ccccc3)cc2)cc1` the inhibition at 25 µg/mL (stock) was 54%.
`Nc1ccc(Cc2ccc(N)c(O)c2)cc1O` gave an inhibition at 25 µg/mL (stock) of 62%.
For `CC1(C)CC(=O)C2=C(C1)OC(N)=C(C#N)C21CCCC1`, the inhibition at 25 µg/mL (stock) was 126%.
For `Nc1ccccc1S(=O)(=O)Nc1cccc2cccnc12`, the inhibition at 25 µg/mL (stock) was 72%.
`Nc1ccc(S(=O)(=O)c2ccc(N)c(N)c2)cc1N` showed an inhibition at 25 µg/mL (stock) of 50%.
`Cc1cc(C)n(-c2ccc3cccc([N+](=O)[O-])c3n2)n1` gave an inhibition at 25 µg/mL (stock) of 88%.
`Nc1ccc(C(=O)c2ccc(N)c(N)c2)cc1N` gave an inhibition at 25 µg/mL (stock) of 46%.
In the case of `O=C(Nc1ccc([N+](=O)[O-])cc1)c1ccc(Br)o1`, the inhibition at 25 µg/mL (stock) is reported as 62%.
`COc1ccc(NS(=O)(=O)c2cc(C(=O)Nc3ccc(C(=O)O)cc3)ccc2C)cc1` showed an inhibition at 25 µg/mL (stock) of 61%.
Work on `COc1ccc(-c2nnc(N)o2)cc1` yielded an inhibition at 25 µg/mL (stock) of 86%.
Work on `CCCCC(NC(=O)c1cccc(Br)c1)C(=O)O` (centres unmarked) yielded an inhibition at 25 µg/mL (stock) of 103%.
In the case of `COc1cc(/C=C2\C(C)=C([N+](=O)[O-])CS2(=O)=O)ccc1O`, the inhibition at 25 µg/mL (stock) is reported as 65%.
`CN(C)c1ccc(NC(=O)C2C3C=CC(C3)C2C(=O)O)cc1` (centres unmarked) showed an inhibition at 25 µg/mL (stock) of 56%.
With `CCOc1ccc(N/C(=N/N)c2ccc3ccccc3n2)cc1` the inhibition at 25 µg/mL (stock) was 66%.
`O=C(Cc1ccccc1)c1ccc(O)c(O)c1O` showed an inhibition at 25 µg/mL (stock) of 46%.
Work on `COc1ccc(-c2ccc(CCC(=O)O)n2-c2ccc(O)cc2)cc1` yielded an inhibition at 25 µg/mL (stock) of 57%.
For `Cc1[nH]nc(-c2ccc(O)c(O)c2O)c1Oc1ccccc1`, the inhibition at 25 µg/mL (stock) was 46%.
`COc1ccc(-c2ccc(CCC(=O)O)o2)cc1` was tested, and the inhibition at 25 µg/mL (stock) was 57%.
Compound `COc1ccc(-c2ccc(CCC(=O)O)[nH]2)cc1` has an inhibition at 25 µg/mL (stock) of 62%.
For `Cc1ccc(-c2ccc(CCC(=O)O)o2)cc1`, the inhibition at 25 µg/mL (stock) was 82%.
Work on `O=C1CC(Sc2ccccn2)C(=O)N1c1cccc(Cl)c1Cl` (centres unmarked) yielded an inhibition at 25 µg/mL (stock) of 49%.
Work on `O=[N+]([O-])c1ccc(SCc2ccco2)c2cccnc12` yielded an inhibition at 25 µg/mL (stock) of 57%.
With `COCCN1C(=O)C(O)=C(C(=O)c2ccc(OC)c(C)c2)C1c1ccncc1` (centres unmarked) the inhibition at 25 µg/mL (stock) was 51%.
In the case of `CC(C)(C)C(=O)NCCNc1ccc([N+](=O)[O-])cc1`, the inhibition at 25 µg/mL (stock) is reported as 47%.
With `Cc1cc(O)ccc1NC(=O)c1ccccc1` the inhibition at 25 µg/mL (stock) was 46%.
Work on `C[n+]1sc(Nc2ccccc2)nc1-c1ccccc1` yielded an inhibition at 25 µg/mL (stock) of 58%.
`O=C(Nc1ccc2nc(-c3ccco3)c(-c3ccco3)nc2c1)N1CCOCC1` showed an inhibition at 25 µg/mL (stock) of 47%.
For `Cc1ccc(OCCn2ccnc2)cc1`, the inhibition at 25 µg/mL (stock) was 85%.
With `COc1ccc(OC)c(N2C(=O)CC(Sc3nc4ccccc4s3)C2=O)c1` (centres unmarked) the inhibition at 25 µg/mL (stock) was 68%.
`Cc1ccc(-c2csc(N)c2C(N)=O)cc1C` gave an inhibition at 25 µg/mL (stock) of 47%.
With `O=C(Nc1nc2c(s1)CCCC2)c1cccs1` the inhibition at 25 µg/mL (stock) was 45%.
With `O=C(O)COc1cccc(/C=C/[N+](=O)[O-])c1` the inhibition at 25 µg/mL (stock) was 67%.
For `NC(=O)c1c(-c2cccs2)csc1N`, the inhibition at 25 µg/mL (stock) was 46%.
`CCc1cccc(NC(=O)NC2CCCCC2)c1` gave an inhibition at 25 µg/mL (stock) of 45%.
For `Cc1nnc(SC2CC(=O)N(c3ccc(Br)cc3)C2=O)s1` (centres unmarked), the inhibition at 25 µg/mL (stock) was 47%.
Work on `Cc1nnc(SC2CC(=O)N(c3ccc(Oc4ccccc4)cc3)C2=O)s1` (centres unmarked) yielded an inhibition at 25 µg/mL (stock) of 58%.
Compound `COc1cc(-c2ccc(NC(=O)c3ccoc3C)c(OC)c2)ccc1NC(=O)c1ccoc1C` has an inhibition at 25 µg/mL (stock) of 45%.
`CCC(=O)Nc1ccc(C(=O)Nc2ccc(Cl)cc2C(=O)O)cc1` gave an inhibition at 25 µg/mL (stock) of 50%.
`O=C(CN1CCCCC1)Nc1ccc(S(=O)(=O)N2CCOCC2)cc1` was tested, and the inhibition at 25 µg/mL (stock) was 48%.
Work on `O=c1oc2cc(Br)c(O)c(Br)c2s1` yielded an inhibition at 25 µg/mL (stock) of 51%.
Work on `COC(=O)Oc1c(Cl)cc2oc(=O)sc2c1[N+](=O)[O-]` yielded an inhibition at 25 µg/mL (stock) of 73%.
In the case of `O=C(O[C@@H]1Cc2c(O)cc(O)cc2O[C@@H]1c1cc(O)c(O)c(O)c1-c1c([C@H]2Oc3cc(O)cc(O)c3C[C@H]2OC(=O)c2cc(O)c(O)c(O)c2)cc(O)c(O)c1O)c1cc(O)c(O)c(O)c1`, the inhibition at 25 µg/mL (stock) is reported as 73%.
Work on `O=C(O[C@@H]1Cc2c(O)cc(O)cc2O[C@@H]1c1cc(O)c(=O)c2c(O)c(O)cc([C@H]3Oc4cc(O)cc(O)c4C[C@H]3OC(=O)c3cc(O)c(O)c(O)c3)c2c1)c1cc(O)c(O)c(O)c1` yielded an inhibition at 25 µg/mL (stock) of 59%.
`O=C(O[C@@H]1Cc2c(O)cc(O)cc2O[C@@H]1c1cc(O)c(O)c(O)c1-c1c([C@H]2Oc3cc(O)cc(O)c3C[C@H]2O)cc(O)c(O)c1O)c1cc(O)c(O)c(O)c1` gave an inhibition at 25 µg/mL (stock) of 83%.
For `O=C(Oc1cc(O)cc2c1C[C@@H](OC(=O)c1cc(O)c(O)c(O)c1)[C@@H](c1cc(O)c(O)c(O)c1)O2)c1cc(O)c(O)c(O)c1`, the inhibition at 25 µg/mL (stock) was 67%.
`O=c1c(O)cc([C@H]2Oc3cc(O)cc(O)c3C[C@H]2O)cc2c([C@H]3Oc4cc(O)cc(O)c4C[C@H]3O)cc(O)c(O)c12` showed an inhibition at 25 µg/mL (stock) of 83%.
Compound `O=C(O[C@@H]1Cc2c(O)cc(O)cc2O[C@@H]1c1cc(O)c(O)c(O)c1)c1cc(O)c(O)c(O)c1` has an inhibition at 25 µg/mL (stock) of 76%.
In the case of `O=C(O[C@@H]1Cc2c(O)cc(O)cc2O[C@@H]1c1cc(O)c(=O)c2c(O)c(O)cc([C@H]3Oc4cc(O)cc(O)c4C[C@H]3O)c2c1)c1cc(O)c(O)c(O)c1`, the inhibition at 25 µg/mL (stock) is reported as 76%.
`O=C(O)c1cc(O)c(O)c(O)c1` gave an inhibition at 25 µg/mL (stock) of 71%.
With `O=c1c(O)cccc2ccc(O)c(O)c12` the inhibition at 25 µg/mL (stock) was 73%.
`CC(=O)Oc1cc(-c2coc3cc(OC(C)=O)c(OC(C)=O)c(OC(C)=O)c3c2=O)cc(OC(C)=O)c1OC(C)=O` was tested, and the inhibition at 25 µg/mL (stock) was 98%.
`O=c1c(-c2cc(O)c(O)c(O)c2)coc2cc(O)c(O)c(O)c12` gave an inhibition at 25 µg/mL (stock) of 98%.
For `O=c1c(O)cccc2c([C@H]3Oc4cc(O)cc(O)c4C[C@H]3O)cc(O)c(O)c12`, the inhibition at 25 µg/mL (stock) was 53%.
`O=C([O-])c1ccccc1-c1c2cc(Br)c(=O)cc-2oc2[c]([Hg][OH])c([O-])c(Br)cc12.[Na+].[Na+]` was tested, and the “POC (Percent of Controls)” value was 97%.
Work on `O=c1c(O)c(-c2cc(O)c(O)c(O)c2)oc2cc(O)cc(O)c12` yielded an inhibition at 25 µg/mL (stock) of 91%.
Compound `O=C1c2ccc(O)cc2O[C@H](c2cc(O)c(O)c(O)c2)[C@H]1O` has an inhibition at 25 µg/mL (stock) of 96%.
`O=C(OC[C@H]1O[C@H](OC(=O)c2cc(O)c(O)c(OC(=O)c3cc(O)c(O)c(O)c3)c2)[C@H](OC(=O)c2cc(O)c(O)c(OC(=O)c3cc(O)c(O)c(O)c3)c2)[C@@H](OC(=O)c2cc(O)c(O)c(OC(=O)c3cc(O)c(O)c(O)c3)c2)[C@@H]1OC(=O)c1cc(O)c(O)c(OC(=O)c2cc(O)c(O)c(O)c2)c1)c1cc(O)c(O)c(OC(=O)c2cc(O)c(O)c(O)c2)c1` gave an inhibition at 25 µg/mL (stock) of 69%.
For `CC(C)c1cc2c(c(O)c1O)[C@@]1(C(=O)O)CCCC(C)(C)C1CC2` (some centres unmarked), the inhibition at 25 µg/mL (stock) was 66%.
